This note sets out measurements from patent EP0417840B1, “Antiviral tetrahydroimidazo [1,4]-benzodiazepines” (JANSSEN PHARMACEUTICA N.V., priority 1989, dated 1991).

One data set concerns HIV. The data set can be described thus: Anti-HIV assay: inhibition of the HIV-induced cytopathic effect in MT-4 cells (MTT). The settings on record: for EC50: Human immunodeficiency virus 1, MT4, dose achieving 50% protection of HIV-infected MT-4 cells, MTT, 540 nm, read-out: ED₅₀ (50% effective dose); for SI (selectivity index): ratio of CD₅₀ to ED₅₀. The class given is cell-based. As to the method: (§1) A rapid, sensitive and automated assay procedure was used for the in-vitro evaluation of anti-HIV agents. An […] T4-cell line, MT-4, which was previously shown (Koyanagi et al., Int. J. Cancer, 36, 445-451, 1985) to be highly susceptible to and permissive for HIV infection, served as the target cell line. Inhibition of the HIV-induced cytopathic effect was used as the end point. The viability of both HIV- and mock-infected cells was assessed spectrophotometrically via the in-situ reduction of 3-(4,5-dimethylthiazol-2-yl)-2,5-diphenyltetrazolium bromide (MTT). The 50% cytotoxic dose (CD₅₀ in µg/ml) was defined as the concentration of compound that reduced the absorbance of the mock-infected control sample by 50%. The percent protection achieved by the compound in HIV-infected cells was calculated by the following formula: [formula] whereby (ODT)HIV is the optical density measured with a given concentration of the test compound in HIV-infected cells; (ODC)HIV is the optical density measured for the control untreated HIV-infected cells; (ODC)MOCK is the optical density measured for the control untreated mock-infected cells; all optical density values were determined at 540 nm. The dose achieving 50% protection according to the above formula was defined as the 50% effective dose (ED₅₀ in µg/ml). The ratio of CD₅₀ to ED₅₀ was defined as the selectivity index (SI).
(In general: Protection from cytopathic effect is a common read-out in antiviral testing.)

A further data set in a line: in vitro. The settings on record: human, mt-4 cells. The format is cell-based. As to the method:
as §1

Converted amounts (≈) assume the structure as drawn.

In general, CC50 refers to the concentration at which the toxic effect on the cells reaches its halfway point. Read a low CC50 as harm at low concentration. As to `CC(C)=CCN1[C@H](C)Cn2c(=S)[nH]c3cccc(c32)[C@@H]1C` (relative stereo) [Compound 5, cis-4,5,6,7-tetrahydro-5,7-dimethyl-6-(3-methyl-2-butenyl)imidazo[4,5,1-jk][1,4]benzodiazepine-2(1H)thione], in the data set on HIV, the EC50 came out at 0.24 µg/mL (≈ 0.796 µM) and the “SI (selectivity index)” value was determined as 96. In “in vitro”, the midpoint of cytotoxicity, the CC50, lay at 23 µg/mL (≈ 76.3 µM).

For `CC(C)=CCN1[C@H](C)Cn2c(=S)[nH]c3cccc(c32)[C@H]1C` (relative stereo) [Compound 6, trans-4,5,6,7-tetrahydro-5,7-dimethyl-6-(3-methyl-2-butenyl)imidazo[4,5,1-jk][1,4]benzodiazepine-2(1H)-thione], in the data set with HIV, the EC50 is 0.0048 µg/mL (≈ 0.0159 µM) and the “SI (selectivity index)” value was 4838. This compound also returned a CC50 in the data set “in vitro” of 23 µg/mL (≈ 76.3 µM).

On to `CC(C)=CCN1CCn2c(=S)[nH]c3cccc(c32)C1C` (stereo not drawn) [Compound 3], for which, in the data set on HIV, the EC50 was found to be 0.1 µg/mL (≈ 0.348 µM) and the “SI (selectivity index)” value was 1770. Moreover, the CC50 in “in vitro” was 177 µg/mL (≈ 616 µM).

`CCCN1CCn2c(=S)[nH]c3cccc(c32)C1C` (stereo not drawn) [Compound 2, 4,5,6,7-tetrahydro-7-methyl-6-propylimidazo[4,5,1-jk] [1,4]benzodiazepin-2(1H)-thione]: in the data set with HIV, the EC50 was determined as 0.5 µg/mL (≈ 1.91 µM) and the “SI (selectivity index)” value is 258. In “in vitro”, it took 129 µg/mL (≈ 494 µM) to reach half-maximal cytotoxicity (CC50).
